Several values for one entry are separate records, joined by “and”; a condition that tells them apart may be missing. Equal entries are not always repeated. Entries after “also recorded” stand apart in the source; their conditions may differ. Where two headings read alike, the source gives them in different places.
How the values were obtained:
[1] = mouse, in vivo
in vivo = settings: mouse, po
[2] = cited from earlier work
[3] = system: H5N1 strain A/Mallard/Bavaria/1/2006; test: microbe, parasite or virus in culture; type: cell-based, influenza A virus; settings: for EC50: read-out: EC50 (concentration required to reduce the virus titer to 50%)
[4] = system: A/Regensburg/D6/2009 H1N1pdm09 strain
[5] = system: influenza virus strain A/FPV/Bratislava/79 (H7N7); settings: mouse
[6] = system: caspase activation (PARP cleavage)
[7] = system: A/FPV/Bratislava/79 (H7N7) viral proteins M1, NP, NS1, PB1
[8] = system: influenza virus strain (H5N1; MB1); settings: mouse, in vivo
[9] = system: H5N1 influenza virus A/Mallard/Bavaria/1/2006
[10] = system: highly pathogenic influenza virus; parameters: species or system C57BL/6 mice; settings: mouse, in vivo
[11] = system: vRNP complexes of H5N1 A/Thailand/KAN-1/2004

CC(=O)Oc1ccccc1C(=O)O [ASA, Acetylsalicylic acid]
AUC and Cmax, plasma compared to lung homogenate [1]: about four-fold higher in plasma | AUC ([1]; iv): 0.0781 mg⋅h/L | Plasma clearance ([1]; iv): high | Terminal half-lives ([1]; iv): short | Volume of distribution at steady state ([1]; iv): moderate | AUC ([1]; po, 15 mg/kg): 0.0688 mg⋅h/L | t1/2 ([1]; po, 15 mg/kg): 4.54 min | bioavailability (in vivo): ~10% | bioavailability (in vivo; 15 mg/kg): 10.3% | half-life (in vivo; 15 mg/kg, t1/2): 8.64 min | Stability in plasma [2]: not stable in plasma | Antiviral effect on virus titers over time [3]: less potent compared to BAY 81-8781; also recorded: An antiviral effect was also found with ASA (gray triangles) and SA (open triangle) 24 h and 32 h post-infection which, however, was leveled-out at the 48 h time-point | EC50 ([3]; Influenza A virus, H5N1, A549, in Anas platyrhynchos): 170 ± 50 µM

D,L-lysine acetylsalicylate ⋅ glycine [BAY 81-8781]
Reduction of virus propagation [4]: effective to reduce virus propagation | TNFα induced activation of TRAIL mRNA (TRAIL mRNA expression): significantly reduced | EC50 in vivo (concentration of inhaled BAY 81-8781 solution) [5]: 1.56% and 1.5% | Reduction of lung virus titers, oral route ([5]; in vivo): no reduction of virus titers was found | Cleavage of caspase substrate PARP [6]: reduces the cleavage of the major caspase substrate PARP | Accumulation of viral proteins [7]: does not impact accumulation of viral proteins | Disease progression (symptom score) [8]: rather moderate | Mice protected from death [8]: 87.5% and 62.5% | Mice protected from death (protected/total) [8]: 5/8 | Weight loss [8]: only a moderate weight loss | Antiviral effect, compound present for 30 min or 1 h [9]: no antiviral effects were found | Antiviral effect, compound present for 2 h or 4 h [9]: a dose dependent antiviral effect was found | Virus titer reduction [9]: > 80% | Day of death (p.i.) [10]: 8.8 days p.i. and 8.8 ± 1.3 days p.i. | Delay of death of non-protected mice compared to solvent animals [10]: 2 days | Survival (survival/total) [10]: 4/8 | Weight loss and disease symptoms [10]: either showed no or only slight weight loss and marginal disease symptoms | Antiviral effect on virus titers over time [3]: strong and sustained reduction of virus titers at all time-points; also recorded: even stronger reduction of virus titers at all time-points | EC50 [3]: 160 ± 60 µM | Release of vRNPs from the nucleus [11]: strongly retained and accumulated in the nucleus

salicylate
AUC and Cmax, plasma compared to lung homogenate [1]: about four-fold higher in plasma | Cmax, plasma compared to lung [1]: about three-fold higher in plasma than in lung | AUC in plasma, SA compared to ASA ([1]; iv): about 25 fold | AUCnorm ([1]; iv): 5.28 kg⋅h/L | Cmax in plasma, SA compared to ASA ([1]; iv): ~2.5 fold | AUC ([1]; po): 15.3 mg⋅h/L | Cmax ([1]; po): 12500 ng/mL | Antiviral effect on virus titers over time [3]: No antiviral effect; also recorded: An antiviral effect was also found with ASA (gray triangles) and SA (open triangle) 24 h and 32 h post-infection which, however, was leveled-out at the 48 h time-point | EC50 [3]: 700 ± 40 µM
